Like-named read-outs stand apart in the source and are kept apart here.
How the values were obtained:
[1] = tested on: cervical cancer cells Hela; experiment: CCK8 cell viability experiment, Hela; type: cell-based
HCC1937 xenograft tumor = experiment: Radiotherapy and chemotherapy of xenograft tumor mice, HCC1937; type: in vivo; settings: CDDP and radiation
[2] = tested on: triple-negative breast cancer cells HCC1937; experiment: CCK8 cell viability experiment, HCC1937; type: cell-based; settings: read-out: IC50 (the concentration of drug required for 50% inhibition)
MDA-MB-231 = experiment: Clone formation experiment, MDA-MB-231; type: cell-based; settings: LARP7 overexpression in MDA-MB-231 vs control
[3] = tested on: MDA-MB-231 xenograft tumor; experiment: Radiotherapy and chemotherapy of xenograft tumor mice, MDA-MB-231; type: in vivo; settings: CDDP and radiation
Hela = experiment: Clone formation experiment, Hela; type: cell-based; settings: LARP7 overexpression in Hela vs control
[4] = tested on: triple-negative breast cancer cells MDA-MB-231; experiment: CCK8 cell viability experiment, MDA-MB-231; type: cell-based

Row | IC50 ([1]; LARP7-knockdown (siLARP7, sgLARP7)) [µM] | IC50 ([1]; LARP7 overexpression) [µM] | IC50 ([1]; control group of LARP7-knockdown) [µM] | IC50 ([1]; control group of LARP7 overexpression) [µM] | IC50 ([2]; HCC1937 control group (of LARP7 knock-down)) [µM] | IC50 ([2]; LARP7-knock-down HCC1937 cells) [µM] | IC50 ([4]; LARP7-overexpressing MDA-MB-231 cells) [µM] | IC50 ([4]; MDA-MB-231 control group (of LARP7 overexpression)) [µM] | Structure (SMILES) | sensitivity of in vivo tumor tissue (HCC1937 xenograft tumor; HCC1937 cells (high LARP7 expression)) | sensitivity of in vivo tumor tissue (HCC1937 xenograft tumor; LARP7-knock-out HCC1937 cells (sgLARP7)) | sensitivity of the cells by clone formation (MDA-MB-231) | sensitivity of in vivo tumor tissue ([3]; MDA-MB-231 cells (low LARP7 expression)) | sensitivity of in vivo tumor tissue ([3]; MDA-MB-231 cells with artificial LARP7 overexpression) | sensitivity of the cells by clone formation (Hela) | IC50 ([1]; Homo sapiens, HeLa, LARP7 overexpression) [µM] | IC50 ([1]; Homo sapiens, HeLa, control group of LARP7 overexpression) [µM] | IC50 ([2]; Homo sapiens, HCC1937, HCC1937 control group (of LARP7 knock-down)) [µM] | IC50 ([2]; Homo sapiens, HCC1937, LARP7-knock-down HCC1937 cells) [µM] | IC50 ([4]; Homo sapiens, MDA-MB-231, LARP7-overexpressing MDA-MB-231 cells) [µM] | IC50 ([4]; Homo sapiens, MDA-MB-231, MDA-MB-231 control group (of LARP7 overexpression)) [µM]
1 | 55.8 ± 5.4 | 19.1 ± 6.9 | 31.4 ± 6 | 39.6 ± 2.5 | 102 ± 9.1 | 185 ± 20.5 | 76.3 ± 26.7 | 232 ± 83.9 | [NH2][Pt]([NH2])([Cl])[Cl] [CDDP, cisplatin] | sensitive | less sensitive | significantly increases the sensitivity | tolerant | significantly improved the sensitivity | significantly increases cell sensitivity |  |  |  |  |  | 
2 |  |  |  |  |  |  |  |  | CO[C@@]12[C@H](COC(N)=O)C3=C(C(=O)C(C)=C(N)C3=O)N1C[C@@H]1N[C@@H]12 [MMS, mitomycin] |  |  |  |  |  |  | 123 ± 22 | 210 ± 21.6 | 247 ± 38.1 | 682 ± 123 | 262 ± 20.3 | 451 ± 29.4
